Legend:
MV-4-11 cells = assay: Cell viability assay (CellTiter-Glo), MV-4-11; format: cell-based; settings: Homo sapiens, MV4-11, 24 hours incubation, 1% FBS, read-out: Average pIC50 by molecule MV-4-11 (converted)
Method in brief: (§1)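 OPM-2, MV-4-11 and ARH-77 cells were grown in medium with 1% FBS and treated with compound in 1/3 dilutions from 30 uM (9–12 points, 0.5% DMSO). Viability was read by CellTiter-Glo luminescence after 24 hours and normalized to DMSO control.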

[1] = target: T1, [MCL-1]-[compound of formula (I)]-[CRBN/DDB1] complex (Homo sapiens, UniProt Q07820+Q96SW2); assay: HTRF ternary complex assay; format: binding; settings: ternary complex formation; read-out: HTRF ternary complex Average pEC50 by molecule (converted)
Method in brief: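 hMcl-1 and CRBN (mix at 48 nM and 105.6 nM) with Streptavidin-Eu cryptate and anti-6×His-d2 in PPI Europium buffer with 2 mM DTT; compounds in dose-response, 0.5% DMSO. Incubated 180 min at 25° C, TR-FRET 665/620 read. Bell-shaped curve fitted by Gaussian; EC50 reported.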

DMS 114 cells = assay: Cell viability assay (CellTiter-Glo), DMS 114; format: cell-based; settings: Homo sapiens, DMS-114, 72 h, 72 hours incubation, 10% FBS, read-out: Average pIC50 by molecule DMS 114 (converted)
Excerpt: The effect of various compounds of the invention on the viability of DMS 114 cell line was investigated, using the CTG protocol described below.
DMS 114 cell line is derived from small-cell lung cancer, which is described in the literature as MCL-1 dependent lines [Yasuda Y et al. Cell Death & Disease 2020; 11: 177].
DMS 114 cells were detached with trypsin and then resuspended in growth medium containing 10% FBS and counted. Cell suspension was then adjusted to 5×10^4 cells/ml using growth medium containing 10% FBS. Afterwards, […] were seeded on 384-well plates (50 μl). Plates were then placed in the incubator overnight until treated. Next day, compounds were added using ECHO 555 liquid handler. Compound concentrations used in this assay: 1/3 dilutions starting at 30 uM (9 to 12 points).
After 72 hours of incubation, cell viability was evaluated using CellTiter-Glo Luminescent Cell Viability Assay (Promega, cat #G7572). Luminescence signal was measured using a CLARIOstar Plus Multi-Mode Microplate Reader (574-590 nm).

[2] = target: T1, [MCL-1]-[compound of formula (I)]-[CRBN/DDB1] complex; assay: AlphaLISA dose response ternary complex formation assay; format: binding; settings: read-out: AlphaLISA dose response Average pEC50 by molecule (converted)
Method in brief: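 EC50 comes from dose–response of AlphaLISA luminescence (excitation 680, emission 615 nm), normalised between DMSO background and an internal positive control, with concentrations past the hook point dropped. Ternary complex formed by mixing bead-bound biotin-hMCL-1 and His-CRBN/DDB1 (protein solutions 40 and 200 nM) with compound in 2% DMSO, 30 min, 25 °C.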

ARH-77 cells = assay: Cell viability assay (CellTiter-Glo), ARH-77; format: cell-based; settings: Homo sapiens, ARH-77, 24 hours incubation, 1% FBS, read-out: Average pIC50 by molecule ARH-77 (converted)
Method in brief: as §1

OPM-2 cells = assay: Cell viability assay (CellTiter-Glo), OPM-2; format: cell-based; settings: Homo sapiens, 24 hours incubation, 1% FBS, read-out: Average pIC50 by molecule OPM-2 (converted)
Excerpt: The effect of various compounds of the invention on the viability of OPM-2, MV-4-11 and ARH-77 cell lines was investigated, using the CTG protocol described below.
OPM-2 and MV-4-11 cell lines are derived from multiple myeloma and acute myeloid leukaemia, respectively. Both cell lines are described in the literature as MCL-1 dependent lines, as opposed to lymphoblast-like ARH-77 cell line, which is described as independent of MCL-1 (Tron A E et al. Nat Commun. 2018; 9: 5341; Caenepeel S et al. Cancer Discov. 2018 December; 8(12):1582-1597).
Cells (OPM-2, MV-4-11 or ARH-77) were seeded on […] in a growth medium with FBS reduced to 1%. Next, compound stocks were pre-diluted in DMSO and added directly to the cells growth medium (final DMSO concentration: 0.5%). Compound concentrations used in this assay: 1/3 dilutions starting at 30 uM (9 to 12 points).
After 24 hours of incubation, cell viability was evaluated using CellTiter-Glo Luminescent Cell Viability Assay (Promega, cat #G7572). Luminescence signal was measured using a CLARIOstar Plus Multi-Mode Microplate Reader (574-590 nm).
Results were normalized to DMSO control.

T1 sequence (Q07820 whole entry): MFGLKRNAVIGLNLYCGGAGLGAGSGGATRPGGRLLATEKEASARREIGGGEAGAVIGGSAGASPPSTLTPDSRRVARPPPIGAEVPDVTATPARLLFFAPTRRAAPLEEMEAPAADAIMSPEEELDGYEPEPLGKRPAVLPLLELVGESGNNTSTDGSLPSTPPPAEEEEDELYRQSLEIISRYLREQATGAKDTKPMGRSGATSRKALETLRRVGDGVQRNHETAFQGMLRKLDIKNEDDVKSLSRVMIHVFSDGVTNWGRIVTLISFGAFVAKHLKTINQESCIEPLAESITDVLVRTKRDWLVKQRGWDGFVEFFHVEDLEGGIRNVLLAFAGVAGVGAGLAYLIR
T1 sequence (Q96SW2 whole entry): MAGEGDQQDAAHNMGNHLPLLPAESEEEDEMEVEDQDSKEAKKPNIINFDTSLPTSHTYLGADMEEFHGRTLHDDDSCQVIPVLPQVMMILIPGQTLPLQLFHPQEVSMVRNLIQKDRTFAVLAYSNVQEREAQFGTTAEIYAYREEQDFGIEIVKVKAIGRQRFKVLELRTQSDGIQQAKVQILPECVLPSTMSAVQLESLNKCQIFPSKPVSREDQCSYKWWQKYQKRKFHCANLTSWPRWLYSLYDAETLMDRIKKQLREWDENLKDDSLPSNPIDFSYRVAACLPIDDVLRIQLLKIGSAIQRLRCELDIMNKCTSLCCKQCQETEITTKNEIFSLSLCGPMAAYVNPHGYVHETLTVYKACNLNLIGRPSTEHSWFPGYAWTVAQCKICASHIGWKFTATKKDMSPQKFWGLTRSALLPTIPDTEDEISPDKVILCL
T1 sequence (Q16531 whole entry partner): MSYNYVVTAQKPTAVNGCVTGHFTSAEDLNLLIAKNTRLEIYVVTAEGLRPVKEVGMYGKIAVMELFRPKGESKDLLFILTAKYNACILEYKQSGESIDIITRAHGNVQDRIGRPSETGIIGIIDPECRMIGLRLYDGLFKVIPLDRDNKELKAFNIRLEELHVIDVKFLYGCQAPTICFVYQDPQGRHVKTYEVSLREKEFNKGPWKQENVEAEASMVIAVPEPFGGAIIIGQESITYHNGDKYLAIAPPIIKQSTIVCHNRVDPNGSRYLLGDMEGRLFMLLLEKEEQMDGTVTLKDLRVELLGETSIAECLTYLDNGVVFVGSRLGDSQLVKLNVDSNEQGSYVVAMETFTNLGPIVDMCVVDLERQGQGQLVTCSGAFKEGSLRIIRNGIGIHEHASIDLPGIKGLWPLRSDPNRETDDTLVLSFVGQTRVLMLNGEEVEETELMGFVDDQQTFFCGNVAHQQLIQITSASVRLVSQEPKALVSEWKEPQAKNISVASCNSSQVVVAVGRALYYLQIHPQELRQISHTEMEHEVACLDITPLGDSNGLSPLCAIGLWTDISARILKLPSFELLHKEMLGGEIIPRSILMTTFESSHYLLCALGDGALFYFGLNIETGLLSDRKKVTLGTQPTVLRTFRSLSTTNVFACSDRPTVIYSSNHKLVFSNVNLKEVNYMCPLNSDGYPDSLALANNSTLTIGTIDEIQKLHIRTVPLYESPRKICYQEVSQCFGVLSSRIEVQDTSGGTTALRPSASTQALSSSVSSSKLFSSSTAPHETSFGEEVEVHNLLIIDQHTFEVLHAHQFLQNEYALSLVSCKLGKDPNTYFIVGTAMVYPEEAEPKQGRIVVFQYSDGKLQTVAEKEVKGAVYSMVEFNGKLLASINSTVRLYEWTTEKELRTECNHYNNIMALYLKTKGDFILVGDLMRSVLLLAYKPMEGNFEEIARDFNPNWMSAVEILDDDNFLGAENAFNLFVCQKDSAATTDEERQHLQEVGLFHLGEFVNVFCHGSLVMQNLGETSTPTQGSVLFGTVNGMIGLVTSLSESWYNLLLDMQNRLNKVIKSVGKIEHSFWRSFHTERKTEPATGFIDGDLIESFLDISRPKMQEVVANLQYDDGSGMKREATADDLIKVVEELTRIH

SMILES	IC50 (MV-4-11 cells)	EC50 [1]	IC50 (DMS 114 cells)	EC50 [2]	IC50 (ARH-77 cells)	IC50 (OPM-2 cells)
Cc1nn(C)c(C)c1-c1c(Cl)ccc2c(CCCOc3cccc4cc(F)ccc34)c(C(=O)O)n(CCN3CCN(C(=O)Cn4c(C)nc5c(C(=O)NC6CCC(=O)NC6=O)ccc(Br)c54)CC3)c12 (stereo not shown) [Compound 269, 1-(2-(4-(2-(7-Bromo-4-((2,6-dioxopiperidin-3-yl)carbamoyl)-2-methyl-1H-benzo[d]imidazol-1-yl)acetyl)piperazin-1-yl)ethyl)-6-chloro-3-(3-((6-fluoronaphthalen-1-yl)oxy)propyl)-7-(1,3,5-trimethyl-1H-pyrazol-4-yl)-1H-indole-2-carboxylic acid]	≤ 100 nM	< 10 nM	≤ 3160 nM	< 100 nM	> 10000 nM	–
Cc1nn(C)c(C)c1-c1c(Cl)ccc2c(CCCOc3cccc4ccccc34)c(C(=O)O)n(CCN3C[C@@H]4CN(C(=O)COc5cccc6c5C(=O)N(C5CCC(=O)NC5=O)C6=O)C[C@@H]4C3)c12 (stereo partly drawn) [Compound 211, 6-chloro-1-(2-((3aR,6aS)-5-(2-((2-(2,6-dioxopiperidin-3-yl)-1,3-dioxoisoindolin-4-yl)oxy)acetyl)hexahydropyrrolo[3,4-c]pyrrol-2(1H)-yl)ethyl)-3-(3-(naphthalen-1-yloxy)propyl)-7-(1,3,5-trimethyl-1H-pyrazol-4-yl)-1H-indole-2-carboxylic acid]	≤ 316 nM	–	–	< 100 nM	> 10000 nM	≤ 3160 nM
Cc1nn(C)c(C)c1-c1c(Cl)ccc2c(CCCOc3cccc4ccccc34)c(C(=O)O)n(CCN3CCN(C(=O)CNc4cccc5c4C(=O)N(C4CCC(=O)NC4=O)C5=O)CC3)c12 (stereo not shown) [Compound 207, 6-chloro-1-{2-[4-(2-{[2-(2,6-dioxopiperidin-3-yl)-1,3-dioxo-2,3-dihydro-1H-isoindol-4-yl]amino}acetyl)piperazin-1-yl]ethyl}-3-[3-(naphthalen-1-yloxy)propyl]-7-(1,3,5-trimethyl-1H-pyrazol-4-yl)-1H-indole-2-carboxylic acid]	≤ 316 nM	–	–	< 100 nM	> 10000 nM	≤ 1000 nM
Cc1nn(C)c(C)c1-c1c(Cl)ccc2c(CCCOc3cccc4ccccc34)c(C(=O)O)n(CCN3CCN(C(=O)COc4cccc5c4C(=O)N(C4CCC(=O)NC4=O)C5=O)CC34CC4)c12 (stereo not shown) [Compound 210, 6-chloro-1-(2-(7-(2-((2-(2,6-dioxopiperidin-3-yl)-1,3-dioxoisoindolin-4-yl)oxy)acetyl)-4,7-diazaspiro[2.5]octan-4-yl)ethyl)-3-(3-(naphthalen-1-yloxy)propyl)-7-(1,3,5-trimethyl-1H-pyrazol-4-yl)-1H-indole-2-carboxylic acid]	≤ 100 nM	–	–	< 100 nM	> 10000 nM	≤ 1000 nM
Cc1nn(C)c(C)c1-c1c(Cl)ccc2c(CCCOc3cccc4c3CCCC4)c(C(=O)O)n(CCN3CCN(C(=O)COc4cccc5c4C(=O)N(C4CCC(=O)NC4=O)C5=O)CC3)c12 (stereo not shown) [Compound 216, 6-chloro-1-{2-[4-(2-{[2-(2,6-dioxopiperidin-3-yl)-1,3-dioxo-2,3-dihydro-1H-isoindol-4-yl]oxy}acetyl)piperazin-1-yl]ethyl}-3-[3-(5,6,7,8-tetrahydronaphthalen-1-yloxy)propyl]-7-(1,3,5-trimethyl-1H-pyrazol-4-yl)-1H-indole-2-carboxylic acid]	≤ 100 nM	< 10 nM	≤ 3160 nM	< 10 nM	> 10000 nM	≤ 100 nM
Cc1nn(C)c(C)c1-c1c(Cl)ccc2c(CCCOc3cccc4cc(F)ccc34)c(C(=O)O)n(CCN3CCN(C4CCN(c5cc6c(cc5F)C(=O)N(C5CCC(=O)NC5=O)C6=O)CC4)CC3)c12 (stereo not shown) [Compound 338, 6-Chloro-1-[2-(4-{1-[2-(2,6-dioxopiperidin-3-yl)-6-fluoro-1,3-dioxo-2,3-dihydro-1H-isoindol-5-yl]piperidin-4-yl}piperazin-1-yl)ethyl]-3-{3-[(6-fluoronaphthalen-1-yl)oxy]propyl}-7-(1,3,5-trimethyl-1H-pyrazol-4-yl)-1H-indole-2-carboxylic acid]	≤ 31.6 nM	< 10 nM	≤ 10000 nM	–	> 10000 nM	–
COCc1c(-c2c(Cl)ccc3c(CCCOc4cccc5cc(F)ccc45)c(C(=O)O)n(CCN4CCN(C(=O)COc5cccc6c5CN(C5CCC(=O)NC5=O)C6=O)CC4)c23)c(C)nn1C (stereo not shown) [Compound 349, 6-Chloro-1-(2-(4-(2-((2-(2,6-dioxopiperidin-3-yl)-1-oxoisoindolin-4-yl)oxy)acetyl)piperazin-1-yl)ethyl)-3-(3-((6-fluoronaphthalen-1-yl)oxy)propyl)-7-(5-(methoxymethyl)-1,3-dimethyl-1H-pyrazol-4-yl)-1H-indole-2-carboxylic acid]	≤ 31.6 nM	< 100 nM	≤ 1000 nM	–	> 10000 nM	–

Source: US20240294499A1, “TARGETED PROTEIN DEGRADATION USING BIFUNCTIONAL COMPOUNDS THAT BIND UBIQUITIN LIGASE AND TARGET MCL-1 PROTEIN” (Captor Therapeutics S.A., priority 2021, published 2024)
